Target: recombinant human PAI-1 (Homo sapiens, UniProt P05121)
Test: biochemical
Details: read-out: Inhibition Rate of PAI-1 Activity (%)
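Also: PAI-1 preincubated with compound, then two-chain tPA added, residual tPA activity read with fluorogenic Pyr-Gly-Arg-MCA substrate after 30 min at room temperature.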

Chain of recombinant human PAI-1 (P05121 24-402): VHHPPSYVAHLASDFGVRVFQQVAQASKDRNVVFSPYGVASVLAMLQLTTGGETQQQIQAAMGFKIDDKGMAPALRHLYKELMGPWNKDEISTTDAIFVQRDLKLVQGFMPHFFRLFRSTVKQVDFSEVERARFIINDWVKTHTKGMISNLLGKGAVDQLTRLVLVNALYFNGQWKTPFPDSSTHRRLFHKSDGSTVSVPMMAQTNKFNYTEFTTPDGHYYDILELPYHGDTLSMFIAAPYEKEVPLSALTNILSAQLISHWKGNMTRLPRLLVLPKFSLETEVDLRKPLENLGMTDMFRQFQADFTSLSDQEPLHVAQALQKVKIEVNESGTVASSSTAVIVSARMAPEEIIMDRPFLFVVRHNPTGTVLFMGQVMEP

| Compound | inhibition at 5 µM [%] | inhibition at 10 µM [%] | inhibition at 25 µM [%] | inhibition at 0.5 µM [%] | inhibition at 1 µM [%] |
| --- | --- | --- | --- | --- | --- |
| CCCCCCOc1ccc(-c2ccc(OC(F)(F)F)cc2)cc1N(CCCCc1ccccc1)C(=O)C(=O)O [Compound 245] | 93 | 97 | – | – | – |
| Cc1cc(N(C)C)c(-c2ccc(OC(F)(F)F)cc2)cc1N(CCCCc1ccccc1)C(=O)C(=O)O [Compound 246] | 79 | 96 | – | – | – |
| O=C(O)C(=O)N(CCCCc1ccccc1)c1ccc(N2CCCCC2)c(-c2ccc(OC(F)(F)F)cc2)c1 [Compound 247] | 93 | 99 | – | – | – |
| CC(C)Oc1ccc(N(CCCCc2ccccc2)C(=O)C(=O)O)cc1-c1ccc(OC(F)(F)F)cc1 [Compound 248] | 60 | 89 | 96 | – | – |
| CC(C)(C)Oc1ccc(N(CCCCc2ccccc2)C(=O)C(=O)O)cc1-c1ccc(OC(F)(F)F)cc1 [Compound 249] | 68 | 89 | – | – | – |
| O=C(O)C(=O)N(CCCCc1ccccc1)c1ccc(N2CCCCC2=O)c(-c2ccc(OC(F)(F)F)cc2)c1 [Compound 250] | 83 | 78 | – | – | – |
| CCCCCCN(C(=O)C(=O)O)c1ccc(Oc2ccc(OC(F)(F)F)cc2)cc1 [Compound 252] | 3 | 6 | 34 | – | – |
| O=C(O)C(=O)N(c1ccc(-c2ccc(OC(F)(F)F)cc2)cc1)C1CCCCC1 [Compound 253] | 9 | 16 | 36 | – | – |
| CCCCCN(C(=O)C(=O)O)c1ccc(-c2ccc(OC(F)(F)F)cc2)cc1 [Compound 254] | 3 | 9 | 31 | – | – |
| CC(C)(C)CN(C(=O)C(=O)O)c1ccc(-c2ccc(OC(F)(F)F)cc2)cc1 [Compound 255] | 2 | 8 | 23 | – | – |
| O=C(O)CCc1cc(OCc2ccc(OC(F)(F)F)cc2)ccc1OCc1ccc(OC(F)(F)F)cc1 [Compound 404] | 14 | 31 | 84 | – | – |
| CC(C)(C)c1ccc(COc2cc(/C=C/C(=O)O)cc(Oc3ccc(OC(F)(F)F)cc3)c2)cc1 [Compound 409] | 26 | 59 | 97 | – | – |
| CC(C)(C)c1ccc(COc2cc(CCC(=O)O)cc(Oc3ccc(OC(F)(F)F)cc3)c2)cc1 [Compound 410] | 37 | 71 | 98 | – | – |
| CC(C)(C)c1ccc(COc2ccc(Nc3ccc(OC(F)(F)F)cc3)cc2CCC(=O)O)cc1 [Compound 412] | 22 | 46 | 92 | – | – |
| CC(C)(C)c1ccc(COc2ccc(OCc3ccc(OC(F)(F)F)cc3)cc2/C=C/C(=O)O)cc1 [Compound 413] | 38 | 66 | 84 | – | – |
| CC(C)(C)c1ccc(COc2ccc(OCc3ccc(OC(F)(F)F)cc3)cc2CCC(=O)O)cc1 [Compound 414] | 33 | 67 | 96 | – | – |
| CN(c1ccc(OC(F)(F)F)cc1)c1ccc(OCc2ccc(C(C)(C)C)cc2)c(CCC(=O)O)c1 [Compound 417] | 44 | 79 | 98 | – | – |

| Compound | inhibition at 5 µM [%] | inhibition at 10 µM [%] | inhibition at 25 µM [%] | inhibition at 0.5 µM [%] | inhibition at 1 µM [%] |
| --- | --- | --- | --- | --- | --- |
| CC(C)(Nc1cc(-c2ccc(OC(F)(F)F)cc2)ccc1OCc1ccc(C(C)(C)C)cc1)C(=O)O [Compound 420] | 42 | 64 | 83 | – | – |
| CC(C)(C)c1ccc(-c2ccc(Oc3ccc(-c4ccc(OC(F)(F)F)cc4)cc3/C=C/C(=O)O)c(CCC(=O)O)c2)cc1 [Compound 540] | 75 | 91 | 91 | – | – |
| CC(C)(C)c1ccc(-c2ccc(Oc3ccc(-c4ccc(OC(F)(F)F)cc4)cc3CCC(=O)O)c(CCC(=O)O)c2)cc1 [Compound 541] | 77 | 93 | > 99 | – | – |
| CC(C)(C)c1ccc(Oc2ccc(-c3ccc(OC(F)(F)F)cc3)cc2CCC(=O)O)c(CCC(=O)O)c1 [Compound 542] | 67 | – | – | 0 | 14 |
| CC(C)(C)c1ccc(COc2cc(-c3ccc(OC(F)(F)F)cc3)cc(O)c2OCC(=O)O)cc1 [Compound 546] | 61 | – | – | 4 | 14 |
| CC(C)(C)c1ccc(CN(C(=O)CCC(=O)O)c2ccc(-c3ccc(OC(F)(F)F)cc3)cc2)cc1 [Compound 609] | 38 | 69 | > 99 | – | – |
| CC(C)(C)c1ccc(CN(C(=O)C(=O)O)c2ccc(OCc3ccc(OC(F)(F)F)cc3)cc2)cc1 [Compound 616] | 49 | 83 | 96 | – | – |
| CC(C)(C)c1ccc(CN(C(=O)C(=O)O)c2cccc(OCc3ccc(OC(F)(F)F)cc3)c2)cc1 [Compound 619] | 48 | 83 | 92 | – | – |
| CC(C)(C)c1ccc(CN(C(=O)C(=O)O)c2ccccc2OCc2ccc(OC(F)(F)F)cc2)cc1 [Compound 620] | 41 | 77 | 95 | – | – |
| CC(C)(C)c1ccc(CN(C(=O)C(=O)O)c2ccc(Sc3ccc(OC(F)(F)F)cc3)cc2)cc1 [Compound 621] | 67 | 95 | 91 | – | – |
| CC(C)(C)c1ccc(CN(C(=O)C(=O)O)c2ccc(OCc3ccc(OC(F)(F)F)cc3)c(OCc3ccc(OC(F)(F)F)cc3)c2)cc1 [Compound 622] | 44 | 72 | 88 | – | – |
| CN(C(=O)C(=O)O)c1ccc(OCc2ccc(OC(F)(F)F)cc2)c(OCc2ccc(OC(F)(F)F)cc2)c1 [Compound 623] | 22 | 41 | 87 | – | – |
| Cc1ccc(N(Cc2ccc(C(C)(C)C)cc2)C(=O)C(=O)O)cc1OCc1ccc(OC(F)(F)F)cc1 [Compound 625] | 59 | 92 | 91 | – | – |
| CC(C)(C)c1ccc(CN(C(=O)C(=O)O)c2ccc(Nc3ccc(OC(F)(F)F)cc3)cc2)cc1 [Compound 626] | 42 | 77 | 97 | – | – |
| CC(C)(C)c1ccc(CN(C(=O)C(=O)O)c2ccc(Cl)c(OCc3ccc(OC(F)(F)F)cc3)c2)cc1 [Compound 629] | 62 | 92 | 88 | – | – |
| CC(C)(C)c1ccc(CN(C(=O)C(=O)O)c2ccc(SCc3ccc(OC(F)(F)F)cc3)cc2)cc1 [Compound 630] | 56 | 89 | 88 | – | – |
| CC(C)(C)c1ccc(CN(C(=O)C(=O)O)c2ccccc2Sc2ccc(OC(F)(F)F)cc2)cc1 [Compound 631] | 58 | 86 | 86 | – | – |
